Test results published in PMC3162021 (PLoS ONE, 2011).
Positions count from the first letter of the chain named.

Legend:
α2 GlyR [1] = biological target: T1, α2 GlyR (Rattus norvegicus, UniProt P22771); assay: whole-cell voltage clamp, modulation of glycine current; type: cell-based; conditions: positive allosteric modulator; glycine at EC10, co-applied; pH 7.4, 20-24 °C
T1 construct: gene Glra2; homomeric α2, expressed in HEK 293 cells; T59, A261, A303 (T59 fits splice form alpha-2A)
T1 sequence (P22771 28-452): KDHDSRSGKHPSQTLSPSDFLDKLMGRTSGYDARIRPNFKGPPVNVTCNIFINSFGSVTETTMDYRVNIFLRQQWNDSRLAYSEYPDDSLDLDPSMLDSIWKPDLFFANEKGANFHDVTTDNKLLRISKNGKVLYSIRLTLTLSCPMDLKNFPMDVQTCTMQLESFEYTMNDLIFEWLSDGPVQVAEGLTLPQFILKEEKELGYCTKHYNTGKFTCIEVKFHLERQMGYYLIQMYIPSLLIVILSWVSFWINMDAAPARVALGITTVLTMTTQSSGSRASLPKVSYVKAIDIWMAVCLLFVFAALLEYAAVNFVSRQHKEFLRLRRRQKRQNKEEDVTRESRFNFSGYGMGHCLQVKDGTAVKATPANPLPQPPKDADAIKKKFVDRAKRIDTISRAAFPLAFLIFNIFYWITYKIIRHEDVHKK

α1 GlyR = biological target: T2, α1 GlyR (Rattus norvegicus, UniProt P07727); assay: as above; type: cell-based; conditions: positive allosteric modulator; glycine at EC10, co-applied; pH 7.4, 20-24 °C
T2 construct: gene Glra1; homomeric α1, expressed in HEK 293 cells from pCI or pcDNA3; A52, I240, G254, S296, K385 (mature numbering); K385 fits the form without the 8-residue loop insert
T2 sequence (P07727 29-449 isoform P07727-2): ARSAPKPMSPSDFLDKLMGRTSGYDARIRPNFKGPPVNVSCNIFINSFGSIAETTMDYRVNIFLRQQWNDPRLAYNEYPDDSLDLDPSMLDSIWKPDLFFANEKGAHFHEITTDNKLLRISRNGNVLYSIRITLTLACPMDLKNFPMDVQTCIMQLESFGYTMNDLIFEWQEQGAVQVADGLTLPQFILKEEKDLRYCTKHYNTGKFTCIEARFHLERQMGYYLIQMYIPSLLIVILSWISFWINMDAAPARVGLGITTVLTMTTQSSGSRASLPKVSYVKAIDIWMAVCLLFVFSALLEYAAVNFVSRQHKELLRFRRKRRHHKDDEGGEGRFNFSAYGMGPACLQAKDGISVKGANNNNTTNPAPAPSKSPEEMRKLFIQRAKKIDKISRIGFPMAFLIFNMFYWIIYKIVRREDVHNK

α2 GlyR [2] = biological target: T1, α2 GlyR; assay: as above; type: cell-based; conditions: allosteric inhibitor; glycine at EC10, co-applied; pH 7.4, 20-24 °C
α2α1 = tested on: T3, α2α1; assay: whole-cell voltage clamp, concentration-response; type: cell-based, Rattus norvegicus; conditions: agonist; pH 7.4, 20-24 °C, -60 mV
T3 construct: gene Glra2; one fused subunit: α2 upstream of the TM3-4 loop (ECD to TM3), then α1 intracellular loop plus TM4; HEK 293
Source text: whole-cell voltage clamp, concentration-response on α2α1

α2 GlyR [3] = biological target: T4, α2 GlyR (Rattus norvegicus, UniProt P22771, A288G/A330S/T86A); assay: whole-cell voltage clamp, concentration-response; type: cell-based
T4 construct: gene Glra2; homomeric α2, expressed in HEK 293 cells; T59, A261, A303 (T59 fits splice form alpha-2A)
T4 sequence (P22771 28-452 T86A/A288G/A330S): T1 sequence (P22771 28-452) with T59A, A261G, A303S
Source text: (§1) whole-cell voltage clamp, concentration-response on α2 GlyR

α2 GlyR [4] = biological target: T5, α2 GlyR (Rattus norvegicus, UniProt P22771, T86A); assay: whole-cell voltage clamp, concentration-response; type: cell-based
T5 construct: gene Glra2; homomeric α2, expressed in HEK 293 cells; T59, A261, A303 (T59 fits splice form alpha-2A)
T5 sequence (P22771 28-452 T86A): T1 sequence (P22771 28-452) with T59A
Source text: as §1

α2 GlyR [5] = biological target: T1, α2 GlyR; assay: whole-cell voltage clamp, concentration-response; type: cell-based
Source text: as §1

α2 GlyR [6] = biological target: T6, α2 GlyR (Rattus norvegicus, UniProt P22771, A288G/T86A); assay: whole-cell voltage clamp, concentration-response; type: cell-based
T6 construct: gene Glra2; homomeric α2, expressed in HEK 293 cells; T59, A261, A303 (T59 fits splice form alpha-2A)
T6 sequence (P22771 28-452 T86A/A288G): T1 sequence (P22771 28-452) with T59A, A261G
Source text: as §1

α2 GlyR [7] = biological target: T7, α2 GlyR (Rattus norvegicus, UniProt P22771, A288G); assay: whole-cell voltage clamp, concentration-response; type: cell-based
T7 construct: gene Glra2; homomeric α2, expressed in HEK 293 cells; T59, A261, A303 (T59 fits splice form alpha-2A)
T7 sequence (P22771 28-452 A288G): T1 sequence (P22771 28-452) with A261G
Source text: as §1

α1α2 = tested on: T8, α1α2; assay: whole-cell voltage clamp, concentration-response; type: cell-based, Rattus norvegicus; conditions: agonist; pH 7.4, 20-24 °C, -60 mV
T8 construct: gene Glra1; one fused subunit: α1 upstream of the TM3-4 loop (ECD to TM3), then α2 intracellular loop plus TM4; HEK 293
Source text: whole-cell voltage clamp, concentration-response on α1α2

Structure (SMILES) | % potentiation at 10 μM (α2 GlyR [1]) | % potentiation at 10 μM (α1 GlyR) | % change of current at 10 μM (α2 GlyR [2]) | EC50 (α2α1) | EC50 (α2 GlyR [3]) | EC50 (α2 GlyR [4]) | EC50 (α2 GlyR [5]) | EC50 (α2 GlyR [6]) | EC50 (α2 GlyR [7]) | EC50 (α1α2)
CCCCC/C=C\C/C=C\C/C=C\C/C=C\CCCC(=O)NCCO [AEA] | showed consistent positive allosteric modulation of all the GlyR isoforms | AEA, anandamide | – | – | – | – | – | – | – | –
CCCCC/C=C\C/C=C\C/C=C\C/C=C\CCCC(=O)NCC(=O)O [NA-Gly] | – | 101±11% | −56±5% | – | – | – | – | – | – | –
NCC(=O)O [glycine] | – | – | – | 111 ± 1 µM | 102 ± 2 µM | 63 ± 1 µM | 120 ± 6 µM | 76 ± 2 µM | 217 ± 6 µM | 86 ± 3 µM
